The values below come from patent US8809386B2, “Use of dynamin ring stabilizers” (Children's Medical Research Institute, priority 2009, dated 2014).

For the experiment, the target named is native brain dynamin I (Ovis aries, UniProt A0ACI6NZN1). The experiment is described as follows: PS liposome-stimulated (helical) dynamin I GTPase activity, inhibition. The format is biochemical, sheep. Particulars: 5 μM, increasing dynamin concentrations, FIG. 1. As to the method:
Each of the dyngo compounds was synthesized by a simple one-step condensation reaction coupling 3-hydroxy-2-naphthoic acid hydrazide with a variety of hydroxyl substituted benzaldehydes affording a focussed library as illustrated by Scheme 1 below (e.g., by mixing the reagents in ethanol (e.g., 10 ml) in a round bottomed flask, refluxing the mixture for 2 hours, allowing it to cool and removing the solvent in vacuo prior to recrystallizing the product from ethanol although other synthesis methods available).
Among the various classes of dynamin inhibitors are subsets of dynamin ring stabilizers.

Chain of native brain dynamin I (A0ACI6NZN1 entry or part of it): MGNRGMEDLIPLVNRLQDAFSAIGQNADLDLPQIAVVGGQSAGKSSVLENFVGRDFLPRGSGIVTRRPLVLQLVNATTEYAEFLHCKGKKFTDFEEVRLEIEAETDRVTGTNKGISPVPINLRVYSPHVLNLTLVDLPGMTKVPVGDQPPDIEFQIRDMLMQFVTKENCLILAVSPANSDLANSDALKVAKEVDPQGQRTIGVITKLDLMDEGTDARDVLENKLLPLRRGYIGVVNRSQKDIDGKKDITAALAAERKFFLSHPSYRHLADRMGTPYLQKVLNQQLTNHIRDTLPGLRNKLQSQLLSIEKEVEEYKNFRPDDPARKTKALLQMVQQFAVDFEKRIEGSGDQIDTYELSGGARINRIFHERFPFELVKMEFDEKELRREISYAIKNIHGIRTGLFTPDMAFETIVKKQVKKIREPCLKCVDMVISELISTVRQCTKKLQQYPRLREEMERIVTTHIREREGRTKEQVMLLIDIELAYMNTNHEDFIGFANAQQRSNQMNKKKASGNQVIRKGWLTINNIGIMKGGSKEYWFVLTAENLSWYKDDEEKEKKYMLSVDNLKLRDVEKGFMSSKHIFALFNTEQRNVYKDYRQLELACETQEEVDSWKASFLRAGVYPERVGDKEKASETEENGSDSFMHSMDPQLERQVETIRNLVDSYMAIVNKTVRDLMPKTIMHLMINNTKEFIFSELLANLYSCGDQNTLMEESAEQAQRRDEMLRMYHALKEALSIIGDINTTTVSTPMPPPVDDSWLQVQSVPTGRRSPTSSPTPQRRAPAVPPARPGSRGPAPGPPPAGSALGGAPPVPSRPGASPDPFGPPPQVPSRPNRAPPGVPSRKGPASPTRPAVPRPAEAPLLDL

Regarding `N#CC(=Cc1cc(O)c(O)c(O)c1)C(=O)NCCCNC(=O)C(C#N)=Cc1cc(O)c(O)c(O)c1` [Bis-T-23, 2-cyano-N-{3-[2-cyano-3-(3,4,5-trihydroxyphenyl)-acryloylamino]-propyl}-3-(3,4,5-trihydroxyphenyl)-acrylamide], the “inhibition of liposome-stimulated dynamin GTPase activity” value was “potently inhibits dynamin at all points”.
